Data: PMC6384738, “Structure-Function Studies of Polymyxin B Lipononapeptides” (Molecules, 2019)
Values after ≈ are worked out from the molar mass of the structure shown. *1 amine or outer side, *2 acyl side, *3 side chain or, on linkers, in order; H or OH if unused. Where a SMILES comes first, the peptide text is derived from it. Bridges are numbered along the chain shown (N, C = ends). [ ]: non-standard residue; d: D form. The star is where a group is joined. NH(2-ClPh) = Clc1ccccc1N*; hSer = N[C@@H](CCO)C(=O)O; Octanoyl = CCCCCCCC(=O)*; Orn = NCCC[C@H](N)C(=O)O; Dab = NCC[C@H](N)C(=O)O; CO = O=C([*:1])[*:2]

Assays:
S. aureus ATCC 25923 = experiment: microbe, parasite or virus in culture
Procedure: (§1) All compounds synthesised in this study were assessed for their minimum inhibitory concentrations (MIC, mg/L) by broth microdilution assay against five antibiotic-sensitive and resistant ATCC reference strains covering the Gram-negative ESKAPE pathogens (Escherichia coli, Klebsiella pneumoniae, A. baumannii, and P. aeruginosa) (Table 1, Table 2 and Table 3). Staphylococcus aureus was also included as a representative Gram-positive bacterial strain. […] Polymyxin B 1, colistin 2, vancomycin and gentamicin were used as positive inhibitor comparator compounds. Compounds were counter-screened against human proximal tubular epithelial cells (HK-2), using LDH release as a general indicator of cellular toxicity.

K. pneumoniae BAA 2146 = experiment: microbe, parasite or virus in culture
Procedure: as §1

P. aeruginosa ATTC 27853 = experiment: microbe, parasite or virus in culture
Procedure: as §1

E. coli ATCC 25922 = experiment: microbe, parasite or virus in culture
Procedure: as §1

K. pneumoniae ATCC 13833 = experiment: microbe, parasite or virus in culture
Procedure: as §1

[1] = system: K. pneumoniae ATCC 700603; experiment: microbe, parasite or virus in culture
Procedure: as §1

A. baumannii ATCC 19606 = experiment: microbe, parasite or virus in culture
Procedure: as §1

in vitro = settings: human
Procedure: as §1
Cytotoxicity to human kidney proximal tubular epithelial cell line, HK-2 (ATCC CRL-2190, sourced from ATCC; Manassas, VA, USA) was determined using the LDH assay as previously described. In brief, HK-2 cells were seeded as 2000 cells/well in black-walled clear bottom 384-well tissue culture treated plates (Corning, catalogue No. 3712) in DMEM/F12 medium (Gibco® 10565-042) containing 10% of Fetal Bovine Serum (FBS, Gibco® 10099-141) and incubated for 24 h at 37 °C, 5% CO2. Compounds were then added into each well with a concentration series from 300 µM to 2.3 µM in 2-fold dilutions. Colistin and polymyxin B were used as controls and tested at a final concentration range of 1 mM to 7.8 µM. The cells were incubated with the compounds for 24 h at 37 °C, 5% CO2. After the incubation, 5 µL of culture medium was added to 45 µL of LDH assay buffer (Biovision, K313-500) and incubated for 30 min at room temperature. The absorbance (ABS) was then read at 450 nm using a Polar Star Omega plate reader. The data was analysed by Prism 6 software (GraphPad Software, La Jolla, CA, USA). Results were calculated using the following equation: cytotoxicity %= (ABSsamples − ABSuntreated/ABS1%Triton X-100 − ABSuntreated) × 100.

SMILES: CC(C)C[C@@H]1NC(=O)[C@@H](Cc2ccccc2)NC(=O)[C@H](CCN)NC(=O)[C@@H](NC(=O)[C@H](CCN)NC(=O)[C@@H](NC(=O)Nc2ccccc2Cl)[C@@H](C)O)CCNC(=O)[C@H]([C@@H](C)O)NC(=O)[C@H](CCN)NC(=O)[C@H](CCN)NC1=O [Compound 15] ({NH(2-ClPh)-CO}-T[Dab][Dab][Dab][dF]L[Dab][Dab]T; lactam 3-C)
- MIC S. aureus ATCC 25923 (S. aureus ATCC 25923; Gram-positive strain, broth microdilution, 18 h): >32 µg/mL
- MIC K. pneumoniae BAA 2146 (K. pneumoniae BAA 2146; NDM-1 positive strain, broth microdilution, 18 h): 32 µg/mL (≈ 28.7 µM)
- MIC P. aeruginosa ATTC 27853 (P. aeruginosa ATTC 27853; broth microdilution, 18 h): 1 µg/mL (≈ 0.895 µM)
- MIC E. coli ATCC 25922 (E. coli ATCC 25922; broth microdilution, 18 h, 37 °C): 32 µg/mL (≈ 28.7 µM)
- MIC K. pneumoniae ATCC 13833 (K. pneumoniae ATCC 13833; broth microdilution, 18 h): >32 µg/mL
- MIC K. pneumoniae ATCC 700603 ([1]; ESBL strain, broth microdilution, 18 h): 32 µg/mL (≈ 28.7 µM)
- MIC A. baumannii ATCC 19606 (A. baumannii ATCC 19606; broth microdilution, 18 h): >32 µg/mL
- CC50 at 24 h (in vitro): 206 µM

SMILES: CCCCCCCC(=O)N[C@H](C(=O)N[C@@H](CCN)C(=O)N[C@H]1CCCNC(=O)[C@H]([C@@H](C)O)NC(=O)[C@H](CCN)NC(=O)[C@H](CCN)NC(=O)[C@H](CC(C)C)NC(=O)[C@@H](Cc2ccccc2)NC(=O)[C@H](CCN)NC1=O)[C@@H](C)O [Compound 17] (Octanoyl-T[Dab][Orn][Dab][dF]L[Dab][Dab]T; lactam 3-C)
- MIC S. aureus ATCC 25923 (S. aureus ATCC 25923; ATCC 25923, 18 h): >32 µg/mL
- MIC K. pneumoniae BAA 2146 (K. pneumoniae BAA 2146; BAA 2146, 18 h): 16 µg/mL (≈ 14.5 µM)
- MIC P. aeruginosa ATTC 27853 (P. aeruginosa ATTC 27853; ATTC 27853, 18 h): 2 µg/mL (≈ 1.81 µM)
- MIC E. coli ATCC 25922 (E. coli ATCC 25922; ATCC 25922, 18 h): 2 µg/mL (≈ 1.81 µM)
- MIC K. pneumoniae ATCC 13833 (K. pneumoniae ATCC 13833; ATCC 13833, 18 h): 32 µg/mL (≈ 29 µM)
- MIC K. pneumoniae ATCC 700603 ([1]; ATCC 700603, 18 h): 16 µg/mL (≈ 14.5 µM)
- MIC A. baumannii ATCC 19606 (A. baumannii ATCC 19606; ATCC 19606, 18 h): >32 µg/mL
- CC50 at 24 h (in vitro): 88 µM

SMILES: CCCCCCCC(=O)N[C@H](C(=O)N[C@@H](CCN)C(=O)N[C@H]1CCCCNC(=O)[C@H]([C@@H](C)O)NC(=O)[C@H](CCN)NC(=O)[C@H](CCN)NC(=O)[C@H](CC(C)C)NC(=O)[C@@H](Cc2ccccc2)NC(=O)[C@H](CCN)NC1=O)[C@@H](C)O [Compound 18] (Octanoyl-T[Dab]K[Dab][dF]L[Dab][Dab]T; lactam 3-C)
- MIC S. aureus ATCC 25923 (S. aureus ATCC 25923; ATCC 25923, 18 h): >32 µg/mL
- MIC K. pneumoniae BAA 2146 (K. pneumoniae BAA 2146; BAA 2146, 18 h): >32 µg/mL
- MIC P. aeruginosa ATTC 27853 (P. aeruginosa ATTC 27853; ATTC 27853, 18 h): 16 µg/mL (≈ 14.3 µM)
- MIC E. coli ATCC 25922 (E. coli ATCC 25922; ATCC 25922, 18 h): 16 µg/mL (≈ 14.3 µM)
- MIC K. pneumoniae ATCC 13833 (K. pneumoniae ATCC 13833; ATCC 13833, 18 h): >32 µg/mL
- MIC K. pneumoniae ATCC 700603 ([1]; ATCC 700603, 18 h): >32 µg/mL
- MIC A. baumannii ATCC 19606 (A. baumannii ATCC 19606; ATCC 19606, 18 h): >32 µg/mL
- CC50 at 24 h (in vitro): 88 µM

SMILES: CCCCCCCC(=O)N[C@H](C(=O)N[C@H](CO)C(=O)N[C@H]1CCNC(=O)[C@H]([C@@H](C)O)NC(=O)[C@H](CCN)NC(=O)[C@H](CCN)NC(=O)[C@H](CC(C)C)NC(=O)[C@@H](Cc2ccccc2)NC(=O)[C@H](CCN)NC1=O)[C@@H](C)O [Compound 36] (Octanoyl-T[dS][Dab][Dab][dF]L[Dab][Dab]T; lactam 3-C)
- MIC S. aureus ATCC 25923 (S. aureus ATCC 25923; ATCC 25923, 18 h): >32 µg/mL
- MIC K. pneumoniae BAA 2146 (K. pneumoniae BAA 2146; BAA 2146, 18 h): 16 µg/mL (≈ 14.9 µM)
- MIC P. aeruginosa ATTC 27853 (P. aeruginosa ATTC 27853; ATTC 27853, 18 h): 16 µg/mL (≈ 14.9 µM)
- MIC E. coli ATCC 25922 (E. coli ATCC 25922; ATCC 25922, 18 h): 4 µg/mL (≈ 3.72 µM)
- MIC K. pneumoniae ATCC 13833 (K. pneumoniae ATCC 13833; ATCC 13833, 18 h): >32 µg/mL
- MIC K. pneumoniae ATCC 700603 ([1]; ATCC 700603, 18 h): >32 µg/mL
- MIC A. baumannii ATCC 19606 (A. baumannii ATCC 19606; ATCC 19606, 18 h): 32 µg/mL (≈ 29.7 µM)
- CC50 at 24 h (in vitro): 213 µM

SMILES: CCCCCCCC(=O)N[C@H](C(=O)N[C@@H](CCO)C(=O)N[C@H]1CCNC(=O)[C@H]([C@@H](C)O)NC(=O)[C@H](CCN)NC(=O)[C@H](CCN)NC(=O)[C@H](CC(C)C)NC(=O)[C@@H](Cc2ccccc2)NC(=O)[C@H](CCN)NC1=O)[C@@H](C)O [Compound 37] (Octanoyl-T[hSer][Dab][Dab][dF]L[Dab][Dab]T; lactam 3-C)
- MIC S. aureus ATCC 25923 (S. aureus ATCC 25923; ATCC 25923, 18 h): >32 µg/mL
- MIC K. pneumoniae BAA 2146 (K. pneumoniae BAA 2146; BAA 2146, 18 h): >32 µg/mL
- MIC P. aeruginosa ATTC 27853 (P. aeruginosa ATTC 27853; ATTC 27853, 18 h): >32 µg/mL
- MIC E. coli ATCC 25922 (E. coli ATCC 25922; ATCC 25922, 18 h): 16 µg/mL (≈ 14.7 µM)
- MIC K. pneumoniae ATCC 13833 (K. pneumoniae ATCC 13833; ATCC 13833, 18 h): >32 µg/mL
- MIC K. pneumoniae ATCC 700603 ([1]; ATCC 700603, 18 h): >32 µg/mL
- MIC A. baumannii ATCC 19606 (A. baumannii ATCC 19606; ATCC 19606, 18 h): >32 µg/mL
- CC50 at 24 h (in vitro): 271 µM
